From patent US5708008A, “5-Substituted-3-(1,2,3,6-tetrahydropyridin-4-yl)-and 3-(piperidin-4-yl)-1H-indoles: new 5-HT1F agonists” (Eli Lilly and Company, priority 1996, dated 1998)
Where two headings read alike, the source gives them in different places.

Experiments:
[1] = test system: protein extravasation induced by stimulation of the trigeminal ganglion; test: Inhibition of neuronal protein extravasation in dura after electrical stimulation of trigeminal ganglion; type: in vivo, rat or guinea pig
[2] = test system: migraine; details: literature; cited from earlier work
[3] = cited from earlier work
[4] = test system: cephalic vascular smooth muscle; details: literature; cited from earlier work
[5] = literature; cited from earlier work
[6] = Rattus norvegicus, iv, read-out: Inhibition of Protein Extravasation, i.v. ID50

CN(C)C1CCc2[nH]c3ccc(O)cc3c2C1 (centres unmarked) [Compound V]
ED50 [1, 6]: 8.7e-06 µmol/kg

CCN(CC)C1CCc2cccc(Cl)c2C1 (centres unmarked) [Compound IV]
ED50 [1, 6]: 0.00012 µmol/kg

Cn1cc(CCN2CCC(c3c[nH]c4ccc(F)cc34)CC2)cn1 [Compound II]
ED50 ([1]; Rattus norvegicus, iv; read-out: Inhibition of Protein Extravasation, i.v. ID50): 8.6e-07 µmol/kg

CNS(=O)(=O)Cc1ccc2[nH]cc(CCN(C)C)c2c1 [Compound I]
efficacy in treatment of migraine [2]: effective in the treatment of migraine
side effects ([3]; due to affinity for a number of serotonin receptor subtypes): undesirable side effects, particularly vasoconstriction
bioavailability ([3]; in vivo): low bioavailability
duration of action ([3]; in vivo): relatively short duration of action
ED50 [1, 6]: 2.6e-05 µmol/kg
contraction of cephalic vascular smooth muscle [4]: contract cephalic vascular smooth muscle
crossing of the blood-brain barrier [5]: does not cross the blood-brain barrier

Oc1ccc2[nH]cc(C3CCNCC3)c2c1 [Compound III]
ED50 [1, 6]: 8.9e-06 µmol/kg
